{"source": "patent US5998596A", "about": "“Inhibition of protein kinase activity by aptameric action of oligonucleotides” (The United States of America as represented by the …)", "key": {"[1]": {"test_system": "Platelet derived growth factor receptor (PDGFR)", "assay": "PDGFR autophosphorylation immune complex kinase assay", "type": "biochemical", "from_the_text": "(§1) The p210^bcr-abl kinase, src kinase and cdc-2 kinase were immunoprecipitated from K562 cells. The p145^abl kinase was immunoprecipitated from PC3M cells, PDGF receptor kinase from 3T3 cells, and EGF receptor kinase from A431 cells. MAP kinase was utilized as a pure protein and lck kinase was immunoprecipitated from peripheral blood lymphocytes of a normal volunteer.\n(§2) Epidermal growth factor receptor (EGFR) was immunoprecipitated with 10 ,g anti-EGFR antibody (clone LA1) and human recombinant epidermal growth factor (both from Upstate Biotechnology Inc., Lake Placid, N.Y.). The assay was performed as described (17) but without removing the EGFR from the protein A-antibody solid support. Instead, epidermal growth factor, at a final concentration of 100 nM, was added to the kinase reaction mixture. Platelet derived growth factor receptor (DGFR) was immunoprecipitated with anti-human type A/type B PDGFR antibody (Upstate Biotechnology Inc.) and immune complex kinase assays performed as referenced (18) except that protein A-Sepharose coated with rabbit anti-mouse immunoglobulin was used instead of formalin-fixed Staphylococcus aureus to bind PDGFR-antibody conjugates. C-src was immunoprecipitated with anti-v-src antibody (Ab-1; Oncogene Science) and assayed as previously described (19) with the addition of enolase as exogenous substrate. […]"}, "p210^bcr-abl kinase": {"test_system": "p210^bcr-abl kinase", "assay": "Phosphorylation of exogenous substrate enolase by p210bcr-abl", "type": "biochemical, human", "procedure": "Immunoprecipitation kinase assays of p210^bcr-abl p145^abl were performed as described, with modifications (15). Briefly, for p210^bcr-abl, 1 μg of anti-bcr antibody (clone 7C6, Oncogene Science, Uniondale, N.Y.) was added to lysates prepared from 0.5-1×10^6 K562 cells. For p145^abl, 1 μg of anti-c-abl antibody (clone 24-21), which binds to the C-terminal domain of p145^abl, was added to lysates prepared from 5×10^6 PC3M cells. After incubating 1 hour at 4° C., complexes were precipitated by incubating with protein A-Sepharose coated with rabbit anti-mouse immunoglobulin (Cappel Research Products, Durham, N.C.) for 30 minutes. The complexes were then washed as follows: ABL lysis buffer×2, PBS×1, and ABL assay buffer×1 (24 mM imidazole, pH 7.2, 1 mg/ml bovine serum albumin, and 10 mM MnCl). For p145^abl assays ABL assay buffer contained 20 mM MnCl. To access the activity of p210^bcr-abl on substrate phosphorylation, acid inactivated enolase (Sigma Chemical Co., St. Louis, Mo.) was added as described (15).\nODNs were added to kinase reaction buffers not more than 5 minutes prior to the addition of ATP. […]\nP210^bcr-abl from K562 cells was immunoprecipitated and kinase assays performed in the presence or absence of 1 μM BCR-AS with varying amounts of enolase present. […] Note that inhibition of autophosphorylation can be readily seen in the absence of enolase (see lanes 5 and 10)."}, "cdc-2 kinase": {"test_system": "cdc-2 kinase", "assay": "cdc-2 kinase assay with dephosphorylated casein", "type": "biochemical, human", "conditions": "Cerenkov counting of excised gel slices", "from_the_text": "as §1, §2"}}, "data": [{"substance": "5'-GTCCACCATGGCGCGGCCGGC-3' [ODN1] (phosphorothioate caps, further chemistry not given here) [21mer ODN complementary to nucleotides -12 to +9 of the p210bcr-abl mRNA, phosphorothioate capped unless otherwise specified]", "values": [{"measurement": "sensitivity of PDGF receptor relative to p145^abl or p210^bcr-abl", "setting": "[1]", "result": "almost a log less sensitive"}, {"measurement": "IC50", "setting": "[1]; Cerenkov counting of excised gel slices, mean ± SD", "result": "4.4 ± 2.3", "unit": "µM"}, {"measurement": "phosphorylation of enolase by p210^bcr-abl", "setting": "p210^bcr-abl kinase; 1 μM BCR-AS, varying amounts of enolase, three minute reaction", "result": "no effect"}, {"measurement": "inhibition of enolase phosphorylation by p210^bcr-abl", "setting": "p210^bcr-abl kinase; ODN1 concentrations of up to 50 μM", "result": "no significant inhibition"}, {"measurement": "IC50", "setting": "cdc-2 kinase", "result": "> 50", "unit": "µM"}]}]}
